Measurements taken from PubChem BioAssay AID220 (DTP/NCI, 2004).
Several values for one entry are separate records, joined by “and”; a condition that tells them apart may be missing. Equal values may be shown once. Inconclusive results are not listed. Starred links: 1 amine or outer side, 2 acyl side, 3 side chain; linkers in the order of their positions; H or OH if unused. Positions of bridges follow the written chain, without caps; N, C: chain ends. Non-standard residues stand in square brackets, D forms with d. Residues, ends and D or L forms follow the SMILES beside them. Chains are numbered I, II in the order given. Actinocin(9to1) = Cc1c2oc3c(C)ccc(C(=O)[*:1])c3nc-2c(C(=O)[*:2])c(N)c1=O; aThr = C[C@H](O)[C@H](N)C(=O)O; NMeV = CN[C@H](C(=O)O)C(C)C; Sar = CNCC(=O)O

System: CD8F1 mice, subcutaneous mammary adenocarcinoma, T/C%
Assay: NCI In Vivo Anticancer Drug Screen. Data for tumor model Mammary Adenocarcinoma CD8F1 (subcutaneous) in CD8F1
Settings: higher = larger tumour
Method: The antitumor activity of compounds was measured in mice bearing transplantable tumors. Survival or tumor size were measured and the results are expressed as the measurement made in the treated group (T) divided by the measurement made in the vehicle treated control group (C). The tumor model used in this assay is Mammary Adenocarcinoma CD8F1 (subcutaneous) in CD8F1

[1] = endpoint: median tumor weight (est.), dose: 25.0 mg/kg/injection, schedule: Q07DX005 (ip), vehicle: saline with Tween-80
[2] = endpoint: median tumor weight (est.), dose: 50.0 mg/kg/injection, schedule: Q07DX005 (ip), vehicle: saline with Tween-80
[3] = endpoint: median tumor weight (est.), dose: 12.5 mg/kg/injection, schedule: Q07DX005 (ip), vehicle: saline with Tween-80
[4] = endpoint: median tumor weight change, dose: 125.0 mg/kg/injection, schedule: Q01DX001 (ip), vehicle: Klucel (hydroxypropylcellulose) (HPC)

For Cc1c2oc3c(C)ccc(C(=O)N[C@@H]4C(=O)N[C@H](C(C)C)C(=O)N5CCC[C@H]5C(=O)N(C)CC(=O)N(C)[C@@H](C(C)C)C(=O)O[C@H]4C)c3nc-2c(C(=O)N[C@@H]2C(=O)N[C@H](C(C)C)C(=O)N3CCC[C@H]3C(=O)N(C)CC(=O)N(C)[C@@H](C(C)C)C(=O)O[C@H]2C)c(N)c1=O (I: [aThr][dV]P[Sar][NMeV] / II: [aThr][dV]P[Sar][NMeV]; ester I:1-I:C, II:1-II:C; linker I:N-II:N via Actinocin(9to1)), the T/C (endpoint: mean tumor weight, dose: 0.02 mg/kg/injection, schedule: Q01DX009 (ip), vehicle: saline) was 98 % of control, the T/C (endpoint: mean tumor weight, dose: 0.03 mg/kg/injection, schedule: Q01DX009 (ip), vehicle: saline + alcohol) was 73 % of control and the T/C (endpoint: mean tumor weight, dose: 0.04 mg/kg/injection, schedule: Q01DX009 (ip), vehicle: saline + alcohol) was 65 % of control. The T/C (endpoint: mean tumor weight, dose: 0.04 mg/kg/injection, schedule: Q01DX009 (ip), vehicle: saline) was 28 % of control, the T/C (endpoint: mean tumor weight, dose: 0.1 mg/kg/injection, schedule: Q07DX007 (ip), vehicle: saline) was 36 % of control and the T/C (endpoint: mean tumor weight, dose: 0.2 mg/kg/injection, schedule: Q07DX007 (ip), vehicle: saline) was 5 % of control. The T/C (endpoint: median tumor weight (est.), dose: 0.03 mg/kg/injection, schedule: Q07DX005 (ip), vehicle: saline) was 56 % of control, the T/C (endpoint: median tumor weight (est.), dose: 0.15 mg/kg/injection, schedule: Q07DX005 (ip), vehicle: saline) was 34 % of control and 49 % of control and the T/C (endpoint: median tumor weight (est.), dose: 0.3 mg/kg/injection, schedule: Q07DX005 (ip), vehicle: saline) was 24 % of control. The T/C (endpoint: median tumor weight (est.), dose: 12.5 micrograms/kg/injection, schedule: Q07DX005 (ip), vehicle: saline) was 66 % of control, the T/C (endpoint: median tumor weight (est.), dose: 25.0 micrograms/kg/injection, schedule: Q07DX005 (ip), vehicle: saline) was 60 % of control and the T/C (endpoint: median tumor weight (est.), dose: 50.0 micrograms/kg/injection, schedule: Q07DX005 (ip), vehicle: saline) was 70 % of control. For the same molecule, the T/C (endpoint: median tumor weight (est.), dose: 100.0 micrograms/kg/injection, schedule: Q07DX005 (ip), vehicle: saline) was 38 % of control, the T/C (endpoint: median tumor weight (est.), dose: 200.0 micrograms/kg/injection, schedule: Q07DX005 (ip), vehicle: saline) was 9 % of control and the T/C (endpoint: median tumor weight change, dose: 0.12 mg/kg/injection, schedule: Q01DX001 (ip), vehicle: saline) was 55 % of control. For the same molecule, the T/C (endpoint: median tumor weight change, dose: 0.25 mg/kg/injection, schedule: Q01DX001 (ip), vehicle: saline) was 30 % of control and 39 % of control and the T/C (endpoint: median tumor weight change, dose: 0.5 mg/kg/injection, schedule: Q01DX001 (ip), vehicle: saline) was 7 % of control and 27 % of control.
In the case of COc1cccc2c1C(=O)c1c(O)c3c(c(O)c1C2=O)C[C@@](O)(C(=O)CO)C[C@@H]3OC1CC(N(C)C)C(O)C(C)O1 (stereo not given in full), the T/C (endpoint: median tumor weight (est.), dose: 2.67 mg/kg/injection, schedule: Q07DX005 (ip), vehicle: water) is reported as 88 % of control.
With O=S1(=O)C=C(c2ccccc2)C(c2ccccc2)=C1 the T/C (endpoint: median tumor weight (est.), dose: 6.25 mg/kg/injection, schedule: Q07DX005 (ip), vehicle: saline with Tween-80) was 80 % of control, the T/C [1] was 72 % of control and the T/C [2] was 108 % of control.
With O=c1[nH]cnc2c1ccn2C1OC(CO)C(O)C1O (stereo not given) the T/C (endpoint: median tumor weight change, dose: 24.0 mg/kg/injection, schedule: Q01DX001 (ip), vehicle: saline) was 74 % of control and the T/C (endpoint: median tumor weight change, dose: 48.0 mg/kg/injection, schedule: Q01DX001 (ip), vehicle: saline) was 62 % of control.
In the case of C[Si](C)(C)n1nnn(-c2ccccc2)c1=O, the T/C (endpoint: mean tumor weight, dose: 25.0 mg/kg/injection, schedule: Q07DX006 (ip), vehicle: saline with Tween-80) is reported as 100 % of control, the T/C (endpoint: mean tumor weight, dose: 50.0 mg/kg/injection, schedule: Q07DX006 (ip), vehicle: saline with Tween-80) is reported as 164 % of control and the T/C (endpoint: mean tumor weight, dose: 400.0 mg/kg/injection, schedule: Q07DX006 (ip), vehicle: saline with Tween-80) is reported as 102 % of control. The T/C [3] was 79 % of control, the T/C [1] was 65 % of control and the T/C [2] was 97 % of control. For the same molecule, the T/C (endpoint: median tumor weight (est.), dose: 200.0 mg/kg/injection, schedule: Q07DX005 (ip), vehicle: saline with Tween-80) was 77 % of control and the T/C (endpoint: median tumor weight (est.), dose: 400.0 mg/kg/injection, schedule: Q07DX005 (ip), vehicle: saline with Tween-80) was 87 % of control.
In the case of CCCCN(CCCC)C(Cl)=Nc1ccccc1, the T/C [4] is reported as 82 % of control and 107 % of control.
COc1cc(C(C)(C)C)cc(OC)c1C(O)(c1c(OC)cc(C(C)(C)C)cc1OC)c1c(OC)cc(C(C)(C)C)cc1OC was tested, and the T/C (endpoint: median tumor weight change, dose: 62.5 mg/kg/injection, schedule: Q01DX001 (ip), vehicle: saline with Tween-80) was 102 % of control, the T/C [4] was 98 % of control and the T/C (endpoint: median tumor weight change, dose: 250.0 mg/kg/injection, schedule: Q01DX001 (ip), vehicle: Klucel (hydroxypropylcellulose) (HPC)) was 62 % of control. For the same molecule, the T/C (endpoint: median tumor weight change, dose: 250.0 mg/kg/injection, schedule: Q01DX001 (ip), vehicle: saline with Tween-80) was 48 % of control and 70 % of control, the T/C (endpoint: median tumor weight change, dose: 500.0 mg/kg/injection, schedule: Q01DX001 (ip), vehicle: Klucel (hydroxypropylcellulose) (HPC)) was 67 % of control and the T/C (endpoint: median tumor weight change, dose: 500.0 mg/kg/injection, schedule: Q01DX001 (ip), vehicle: saline with Tween-80) was 37 % of control and 46 % of control. The T/C (endpoint: median tumor weight change, dose: 1000.0 mg/kg/injection, schedule: Q01DX001 (ip), vehicle: saline with Tween-80) was 17 % of control.
CC[C@@]1(O)C[C@H](OC2CC(N(C)C)C(OC3CC(O)C(O[C@@H]4O[C@@H](C)C(=O)C=C4N)C(C)O3)C(C)O2)c2c(cc3c(c2O)C(=O)c2c(O)ccc(O)c2C3=O)[C@H]1C(=O)OC (stereo not given in full) was tested, and the T/C (endpoint: median tumor weight (est.), dose: 0.09 mg/kg/injection, schedule: Q07DX005 (ip), vehicle: suspension in saline) was 180 % of control, the T/C (endpoint: median tumor weight (est.), dose: 0.18 mg/kg/injection, schedule: Q07DX005 (ip), vehicle: suspension in saline) was 168 % of control and the T/C (endpoint: median tumor weight (est.), dose: 0.37 mg/kg/injection, schedule: Q07DX005 (ip), vehicle: suspension in saline) was 240 % of control. The T/C (endpoint: median tumor weight (est.), dose: 0.38 mg/kg/injection, schedule: Q07DX005 (ip), vehicle: suspension in saline) was 37 % of control, the T/C (endpoint: median tumor weight (est.), dose: 3.0 mg/kg/injection, schedule: Q07DX005 (ip), vehicle: suspension in saline) was 50 % of control and 69 % of control and the T/C (endpoint: median tumor weight (est.), dose: 1.0 micrograms/kg/injection, schedule: Q07DX005 (ip), vehicle: Klucel (hydroxypropylcellulose) (HPC)) was 106 % of control. For the same molecule, the T/C (endpoint: median tumor weight (est.), dose: 4.0 micrograms/kg/injection, schedule: Q07DX005 (ip), vehicle: Klucel (hydroxypropylcellulose) (HPC)) was 123 % of control.
In the case of CN(C)CCOc1ccc2c(c1)C/C(=C/c1ncc([N+](=O)[O-])n1C)C2=O, the T/C [3] is reported as 113 % of control, the T/C [1] is reported as 100 % of control and the T/C [2] is reported as 93 % of control. For the same molecule, the T/C (endpoint: median tumor weight (est.), dose: 100.0 mg/kg/injection, schedule: Q07DX005 (ip), vehicle: saline with Tween-80) was 61 % of control.
With O=C1CC2(C(=O)N1CN1CCCCC1)c1ccccc1-c1ccccc12 the T/C (endpoint: median tumor weight (est.), dose: 12.5 mg/kg/injection, schedule: Q07DX005 (ip), vehicle: Klucel (hydroxypropylcellulose) (HPC)) was 99 % of control, the T/C (endpoint: median tumor weight (est.), dose: 25.0 mg/kg/injection, schedule: Q07DX005 (ip), vehicle: Klucel (hydroxypropylcellulose) (HPC)) was 71 % of control and the T/C (endpoint: median tumor weight (est.), dose: 100.0 mg/kg/injection, schedule: Q07DX005 (ip), vehicle: Klucel (hydroxypropylcellulose) (HPC)) was 85 % of control. The T/C (endpoint: median tumor weight (est.), dose: 200.0 mg/kg/injection, schedule: Q07DX005 (ip), vehicle: Klucel (hydroxypropylcellulose) (HPC)) was 62 % of control and the T/C (endpoint: median tumor weight (est.), dose: 400.0 mg/kg/injection, schedule: Q07DX005 (ip), vehicle: Klucel (hydroxypropylcellulose) (HPC)) was 21 % of control.
CCNC(=O)[B-][N+](C)(C)C was tested, and the T/C (endpoint: median tumor weight change, dose: 50.0 mg/kg/injection, schedule: Q01DX001 (ip), vehicle: Klucel (hydroxypropylcellulose) (HPC)) was 101 % of control, the T/C (endpoint: median tumor weight change, dose: 100.0 mg/kg/injection, schedule: Q01DX001 (ip), vehicle: Klucel (hydroxypropylcellulose) (HPC)) was 108 % of control and the T/C (endpoint: median tumor weight change, dose: 200.0 mg/kg/injection, schedule: Q01DX001 (ip), vehicle: Klucel (hydroxypropylcellulose) (HPC)) was 97 % of control. For the same molecule, the T/C (endpoint: median tumor weight change, dose: 400.0 mg/kg/injection, schedule: Q01DX001 (ip), vehicle: Klucel (hydroxypropylcellulose) (HPC)) was 72 % of control.
C1CC[N-]CC1.[Cl][Pt+2][Cl].[NH-]C1CC1 was tested, and the T/C (endpoint: median tumor weight change, dose: 31.0 mg/kg/injection, schedule: Q01DX001 (ip), vehicle: water) was 116 % of control, the T/C (endpoint: median tumor weight change, dose: 62.0 mg/kg/injection, schedule: Q01DX001 (ip), vehicle: water) was 121 % of control and the T/C (endpoint: median tumor weight change, dose: 62.5 mg/kg/injection, schedule: Q01DX001 (ip), vehicle: distilled water + Tween-80) was 26 % of control. The T/C (endpoint: median tumor weight change, dose: 125.0 mg/kg/injection, schedule: Q01DX001 (ip), vehicle: water) was 21 % of control.
Cc1c2c(ccc3ccccc32)c[n+]2ccccc12 was tested, and the T/C (endpoint: median tumor weight (est.), dose: 6.25 mg/kg/injection, schedule: Q07DX005 (ip), vehicle: saline) was 73 % of control and the T/C (endpoint: median tumor weight (est.), dose: 12.5 mg/kg/injection, schedule: Q07DX005 (ip), vehicle: saline) was 71 % of control.
